From the NIST ThermoML archive (doi:10.1021/acs.jced.8b00958)

Assay: mn = molality of the nth substance listed, in mol/kg
Conditions: 85 kPa, Liquid; for viscosity: Falling or rolling sphere viscometry; for speed of sound: Frequency=3 MHz, Single path-length method; for mass density: Vibrating tube method

O=C(CO)[C@@H](O)[C@H](O)[C@H](O)CO [D-fructose] + O
Conditions | mass density [kg/m3] | speed of sound [m/s] | viscosity [mPa·s]
288.15 K, m1 = 0.0498 | 1002.61 | – | 1.163
288.15 K, m1 = 0.1521 | – | – | 1.224
288.15 K, m1 = 0.2488 | 1016.24 | 1484.3 | 1.274
288.15 K, m1 = 0.3494 | 1022.9 | 1491.6 | 1.335
288.15 K, m1 = 0.4476 | 1029.24 | 1498.6 | 1.394
288.15 K, m1 = 0.5483 | 1035.58 | – | 1.465
288.15 K, m1 = 0.6491 | 1041.8 | 1512.6 | 1.529
298.15 K, m1 = 0.0498 | 1000.49 | – | –
298.15 K, m1 = 0.1521 | – | 1506.7 | 0.964
298.15 K, m1 = 0.2488 | 1013.83 | 1513.1 | 0.993
298.15 K, m1 = 0.3494 | 1020.36 | 1519.4 | 1.038
298.15 K, m1 = 0.4476 | 1026.59 | 1525.6 | 1.08
298.15 K, m1 = 0.5483 | 1032.83 | 1532 | 1.133
298.15 K, m1 = 0.6491 | 1038.95 | 1538.4 | 1.178
308.15 K, m1 = 0.0498 | 997.41 | – | –
308.15 K, m1 = 0.1521 | 1004.25 | 1528.8 | 0.774
308.15 K, m1 = 0.2488 | – | 1534.4 | 0.804
308.15 K, m1 = 0.3494 | 1016.98 | 1540.3 | 0.836
308.15 K, m1 = 0.4476 | 1023.1 | 1546 | 0.87
308.15 K, m1 = 0.5483 | 1029.27 | 1551.3 | 0.909
308.15 K, m1 = 0.6491 | 1035.3 | 1556.9 | 0.941
318.15 K, m1 = 0.0498 | 993.54 | – | 0.624
318.15 K, m1 = 0.1521 | 1000.27 | – | 0.648
318.15 K, m1 = 0.2488 | – | 1549.8 | 0.67
318.15 K, m1 = 0.3494 | 1012.8 | 1555 | 0.699
318.15 K, m1 = 0.4476 | 1018.84 | 1559.9 | 0.718
318.15 K, m1 = 0.5483 | 1024.89 | 1565.3 | 0.747
318.15 K, m1 = 0.6491 | 1030.8 | 1570.3 | 0.777
